Data reported in patent US10947229B2, “Dimethyl amino azetidine amides as JAK inhibitors” (THERAVANCE BIOPHARMA R&D IP, LLC, priority 2018, dated 2021).

Experiments:
Lung S9 metabolism = format: in vitro ADME, human; settings: for Compound Remaining at 60 min (%) / microsomal CLint at 1 µM: human lung S9, 1 μM compound, 1 mg/mL S9 protein; for Sulfate Appearance: human lung S9, qualitative O-sulfate metabolite peak; for microsomal CLint at 1 µM: human lung S9 fraction, pH 7.4, NADPH and PAPS, read-out: Clearance
Experimental: The time 0, 15, 30, and 60 minute samples were analyzed for parent compound by high resolution LC-MS/MS. Lung S9 fractions from human (lot 1410245) were purchased from XenoTech LLC (Lenexa, Kans.). NADPH (Sigma Aldrich, N1630) and 3-phosphoadenosine 5-phosphosulfate (PAPS) (Sigma Aldrich, A1651) were purchased from Sigma Aldrich (St. Louis, Mo.). Acetonitrile and water were obtained from VWR (Radnor, Pa.) and were of HPLC grade or better. Raloxifene and formic acid was purchased from Sigma Aldrich (St. Louis, Mo.). Lung S9 incubations were performed in a water bath at 37° C. in a 96-well polypropylene plate. […] Louis, Mo.), 3 mM magnesium chloride (Sigma Aldrich, M1028) and in the presence of 100 μM PAPS (Sigma-Aldrich, St. […] Incubation volumes consisted of 400 μL and time points were taken at 0, 15, 30, and 60 minutes by the removal of a 70 μL aliquot and dilution into 140 μL acetonitrile (0% formic acid). All samples were centrifuged at 2250 g for 10 minutes at 5° C. Supernatant […] was taken from the centrifuged samples and diluted into 100 μL HPLC water containing internal standard. The samples were run on a Dionex Ultimate 3000 Auto sampler and analyzed using a Thermo Q-Exactive High Resolution Mass Spectrometer (Thermo, Waltham, Mass.) in Full Scan mode in conjunction with an Atlantis T3 column 3 μM-2.1×50 mm (Waters Inc., 186003717). Mobile Phase A consisted of Water+0.2% formic acid and Mobile Phase B consisted of acetonitrile +0.2% formic acid. Peak integration was accomplished using Gubbs GMSU software (Gubbs Inc., Alpharetta, Ga.). For each sample, peak area ratios were calculated by dividing the analyte peak area by the internal standard peak area. For each incubation, the peak area ratios of the analytes in each t0 was set to 100%, and the peak areas ratios from the 60 minute samples were converted to percentages remaining relative to the corresponding t0. Determination of sulfate metabolite formation was made qualitatively by observation of early-eluting peak in the parent ion channel which, based on historical internal data, corresponded to the O-sulfate metabolite of each parent compound.

Tyk2 = Tyk2 (Homo sapiens (Human), UniProt P29597); assay: Biochemical JAK kinase assay (LanthaScreen), Tyk2
Experimental: (§1) Recombinant GST-tagged JAK enzymes and a GFP-tagged STAT1 peptide substrate were obtained from Life Technologies. Serially diluted compounds were pre-incubated with each of the four JAK enzymes and the substrate in white 384-well microplates (Corning) at ambient temperature for 1 h. ATP was subsequently added to initiate the kinase reactions in 10 μL total volume, with 1% DMSO. […] Kinase reactions were allowed to proceed for 1 hour at ambient temperature before a 10 μL preparation of EDTA (10 mM final concentration) and Tb-anti-pSTAT1 ([…]) antibody (Life Technologies, 2 nM final concentration) in TR-FRET dilution buffer (Life Technologies) was added. The plates were allowed to incubate at ambient temperature for 1 h before being read on the EnVision reader (Perkin Elmer). Emission ratio signals (520 nm/495 nm) were recorded and utilized to calculate the percent inhibition values based on DMSO and background controls. For dose-response analysis, percent inhibition data were plotted vs. compound concentrations, and IC50 values were determined from a 4-parameter robust fit model with the Prism software (GraphPad Software). Results were expressed as pIC50 (negative logarithm of IC50) and subsequently converted to pKi (negative logarithm of dissociation constant, Ki) using the Cheng-Prusoff equation.

[1] = test system: IL-2 stimulated pSTAT5 in Tall-1 T cells; assay: Inhibition of IL-2 stimulated pSTAT5 in Tall-1 T cells; format: cell-based; settings: IL-2 stimulated pSTAT5, Tall-1 human T cell line; read-out: Tall-1 pIC50 (converted)
Experimental: The potency of test compounds for inhibition of interleukin-2 (IL-2) stimulated STAT5 phosphorylation was measured in the Tall-1 human T cell line (DSMZ) using AlphaLisa. Because IL-2 signals through JAK1/3, this assay provides a measure of JAK1/3 cellular potency.
Phosphorylated STAT5 was measured via the AlphaLISA SureFire Ultra pSTAT5 (Tyr694/699) kit (PerkinElmer).
Human T cells from the Tall-1 cell line were cultured in a 37° C., 5% CO2 humidified incubator in RPMI (Life Technologies) supplemented with 15% Heat Inactivated Fetal Bovine Serum (FBS, Life Technologies), 2 mM Glutamax (Life Technologies), 25 mM HEPES (Life Technologies) and 1× Pen/Strep (Life Technologies). Compounds were serially diluted in DMSO and dispensed acoustically to empty wells. Assay media (phenol red-free DMEM (Life Technologies) supplemented with 10% FBS (ATCC)) was dispensed (4 μL/well) and plates shaken at 900 rpm for 10 mins. Cells were seeded at 45,000 cells/well in assay media (4 μL/well), and incubated at 37° C., 5% CO2 for 1 hour, followed by the addition of IL-2 (R&D Systems; final concentration 300 ng/mL) in pre-warmed assay media (4 μL) for 30 minutes. After cytokine stimulation, cells were lysed with 6 ul of 3× AlphaLisa Lysis Buffer (PerkinElmer) containing 1× PhosStop and Complete tablets (Roche). The lysate was shaken at 900 rpm for 10 minutes at room temperature (RT). Phosphorylated STAT5 was measured via the pSTAT5 AlphaLisa kit (PerkinElmer). Freshly prepared acceptor bead mixture was dispensed onto lysate (5 μL) under green filtered <100 lux light. Plates were shaken at 900 rpm for 2 mins, briefly spun down, and incubated for 2 hrs at RT in the dark. Donor beads were dispensed (5 μL) under green filtered <100 lux light. Plates were shaken at 900 rpm for 2 minutes, briefly spun down, and incubated overnight at RT in the dark. Luminescence was measured with excitation at 689 nm and emission at 570 nm using an EnVision plate reader (PerkinElmer) under green filtered <100 lux light.
To determine the inhibitory potency of test compounds in response to IL-2, the average emission intensity of beads bound to pSTAT5 was measured in a human T cell line. IC50 values were determined from analysis of the inhibition curves of signal intensity versus compound concentration. Data are expressed as pIC50 (negative decadic logarithm IC50) values (mean±standard deviation).

JAK2 = JAK2 (Homo sapiens (Human), UniProt O60674); assay: Biochemical JAK kinase assay (LanthaScreen), JAK2
Experimental: as §1, with “equation. Test compounds having a lower Ki value or higher pKi value in the four JAK assays show greater inhibition of JAK activity.” for “equation.”

JAK1 = JAK1 (Homo sapiens (Human), UniProt P23458); assay: Biochemical JAK kinase assay (LanthaScreen), JAK1; settings: for Ki: read-out: JAK1 pKi (converted)
Experimental: as §1

JAK3 = JAK3 (Homo sapiens (Human), UniProt P52333); assay: Biochemical JAK kinase assay (LanthaScreen), JAK3
Experimental: as §1

JAK1, sequence (P23458 whole entry): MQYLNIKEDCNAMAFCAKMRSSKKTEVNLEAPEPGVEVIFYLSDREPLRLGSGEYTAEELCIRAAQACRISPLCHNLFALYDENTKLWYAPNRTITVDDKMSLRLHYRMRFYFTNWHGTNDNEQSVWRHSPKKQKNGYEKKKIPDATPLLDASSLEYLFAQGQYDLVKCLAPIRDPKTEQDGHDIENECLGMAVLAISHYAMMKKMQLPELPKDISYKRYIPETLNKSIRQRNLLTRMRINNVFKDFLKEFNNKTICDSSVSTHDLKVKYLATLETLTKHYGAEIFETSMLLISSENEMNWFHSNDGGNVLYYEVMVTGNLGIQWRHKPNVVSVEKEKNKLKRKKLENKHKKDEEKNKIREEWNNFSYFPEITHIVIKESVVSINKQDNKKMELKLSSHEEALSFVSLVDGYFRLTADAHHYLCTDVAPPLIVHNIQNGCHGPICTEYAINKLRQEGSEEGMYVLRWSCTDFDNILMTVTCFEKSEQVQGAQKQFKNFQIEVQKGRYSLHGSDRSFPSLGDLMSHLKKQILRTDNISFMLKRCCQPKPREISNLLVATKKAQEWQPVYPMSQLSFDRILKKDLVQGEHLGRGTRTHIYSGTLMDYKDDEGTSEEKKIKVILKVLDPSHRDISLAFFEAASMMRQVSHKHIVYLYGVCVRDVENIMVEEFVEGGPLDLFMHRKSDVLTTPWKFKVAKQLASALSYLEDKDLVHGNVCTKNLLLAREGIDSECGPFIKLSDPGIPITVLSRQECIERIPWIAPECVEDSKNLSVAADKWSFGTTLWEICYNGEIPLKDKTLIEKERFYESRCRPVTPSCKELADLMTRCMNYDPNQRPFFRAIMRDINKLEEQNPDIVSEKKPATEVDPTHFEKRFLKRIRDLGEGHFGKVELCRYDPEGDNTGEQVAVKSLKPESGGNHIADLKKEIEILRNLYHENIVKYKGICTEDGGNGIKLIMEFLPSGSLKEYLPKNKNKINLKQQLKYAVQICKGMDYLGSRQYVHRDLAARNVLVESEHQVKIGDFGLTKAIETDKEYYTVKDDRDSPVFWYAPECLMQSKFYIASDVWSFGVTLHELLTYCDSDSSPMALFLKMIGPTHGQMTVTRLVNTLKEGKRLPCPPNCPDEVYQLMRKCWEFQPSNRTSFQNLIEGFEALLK
JAK2, sequence (O60674 whole entry): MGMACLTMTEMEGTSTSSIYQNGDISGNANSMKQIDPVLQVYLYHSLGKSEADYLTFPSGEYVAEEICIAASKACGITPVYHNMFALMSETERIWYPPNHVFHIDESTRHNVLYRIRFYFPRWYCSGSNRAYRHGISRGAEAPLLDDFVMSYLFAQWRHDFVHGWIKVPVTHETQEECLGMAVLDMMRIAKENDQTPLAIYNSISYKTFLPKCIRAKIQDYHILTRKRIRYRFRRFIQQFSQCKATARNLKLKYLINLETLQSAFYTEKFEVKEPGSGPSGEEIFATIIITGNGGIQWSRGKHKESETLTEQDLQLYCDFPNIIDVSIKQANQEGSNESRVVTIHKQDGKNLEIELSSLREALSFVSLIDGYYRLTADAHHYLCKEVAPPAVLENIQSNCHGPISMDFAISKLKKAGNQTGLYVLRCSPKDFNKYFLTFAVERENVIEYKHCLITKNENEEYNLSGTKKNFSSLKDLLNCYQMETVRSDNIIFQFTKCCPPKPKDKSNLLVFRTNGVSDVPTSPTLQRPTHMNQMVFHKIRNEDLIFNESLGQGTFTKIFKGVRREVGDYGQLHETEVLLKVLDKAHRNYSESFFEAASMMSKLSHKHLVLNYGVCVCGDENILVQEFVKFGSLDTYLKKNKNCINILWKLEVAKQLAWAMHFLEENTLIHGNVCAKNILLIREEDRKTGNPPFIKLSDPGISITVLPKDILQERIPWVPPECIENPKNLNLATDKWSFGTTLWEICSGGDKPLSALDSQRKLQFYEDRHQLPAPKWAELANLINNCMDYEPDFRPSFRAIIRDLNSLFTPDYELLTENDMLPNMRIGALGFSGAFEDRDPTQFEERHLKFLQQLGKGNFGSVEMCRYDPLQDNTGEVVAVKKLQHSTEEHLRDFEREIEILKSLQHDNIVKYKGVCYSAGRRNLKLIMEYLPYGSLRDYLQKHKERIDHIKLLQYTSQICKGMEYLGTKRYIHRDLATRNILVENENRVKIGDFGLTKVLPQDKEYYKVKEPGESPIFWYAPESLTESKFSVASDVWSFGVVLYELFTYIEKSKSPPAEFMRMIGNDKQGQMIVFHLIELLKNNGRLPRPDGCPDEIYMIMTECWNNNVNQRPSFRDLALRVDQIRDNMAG
Tyk2, sequence (P29597 whole entry): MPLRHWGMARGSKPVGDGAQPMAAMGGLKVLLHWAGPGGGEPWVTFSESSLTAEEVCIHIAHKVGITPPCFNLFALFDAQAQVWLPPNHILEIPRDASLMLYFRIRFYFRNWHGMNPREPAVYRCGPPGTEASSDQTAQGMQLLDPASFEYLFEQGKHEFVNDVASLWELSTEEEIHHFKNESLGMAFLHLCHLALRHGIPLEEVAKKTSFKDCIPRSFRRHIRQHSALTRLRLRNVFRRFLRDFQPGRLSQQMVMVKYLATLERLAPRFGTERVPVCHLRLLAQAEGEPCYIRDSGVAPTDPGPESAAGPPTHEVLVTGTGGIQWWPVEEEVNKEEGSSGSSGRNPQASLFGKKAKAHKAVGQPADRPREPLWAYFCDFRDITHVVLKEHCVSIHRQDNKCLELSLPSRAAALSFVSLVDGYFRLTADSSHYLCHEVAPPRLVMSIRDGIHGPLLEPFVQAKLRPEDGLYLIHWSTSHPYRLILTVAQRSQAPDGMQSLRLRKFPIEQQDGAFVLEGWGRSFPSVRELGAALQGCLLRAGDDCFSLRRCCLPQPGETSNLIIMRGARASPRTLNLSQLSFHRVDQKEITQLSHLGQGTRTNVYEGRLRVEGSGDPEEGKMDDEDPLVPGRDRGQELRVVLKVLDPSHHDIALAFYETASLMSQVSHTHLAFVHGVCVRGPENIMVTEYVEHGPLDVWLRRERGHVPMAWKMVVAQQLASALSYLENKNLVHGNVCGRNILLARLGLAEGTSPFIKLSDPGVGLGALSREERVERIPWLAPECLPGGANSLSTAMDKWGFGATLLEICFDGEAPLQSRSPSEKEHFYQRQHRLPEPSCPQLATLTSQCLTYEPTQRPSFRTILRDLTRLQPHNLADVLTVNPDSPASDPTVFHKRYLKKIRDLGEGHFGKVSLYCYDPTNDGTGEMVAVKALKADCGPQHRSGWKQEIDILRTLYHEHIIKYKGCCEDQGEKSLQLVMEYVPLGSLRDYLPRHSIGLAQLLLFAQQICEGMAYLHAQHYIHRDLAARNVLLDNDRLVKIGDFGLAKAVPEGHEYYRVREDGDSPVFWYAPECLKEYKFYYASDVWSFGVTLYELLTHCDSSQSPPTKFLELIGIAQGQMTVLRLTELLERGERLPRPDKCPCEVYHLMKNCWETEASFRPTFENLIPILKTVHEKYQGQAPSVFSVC
JAK3, sequence (P52333 whole entry): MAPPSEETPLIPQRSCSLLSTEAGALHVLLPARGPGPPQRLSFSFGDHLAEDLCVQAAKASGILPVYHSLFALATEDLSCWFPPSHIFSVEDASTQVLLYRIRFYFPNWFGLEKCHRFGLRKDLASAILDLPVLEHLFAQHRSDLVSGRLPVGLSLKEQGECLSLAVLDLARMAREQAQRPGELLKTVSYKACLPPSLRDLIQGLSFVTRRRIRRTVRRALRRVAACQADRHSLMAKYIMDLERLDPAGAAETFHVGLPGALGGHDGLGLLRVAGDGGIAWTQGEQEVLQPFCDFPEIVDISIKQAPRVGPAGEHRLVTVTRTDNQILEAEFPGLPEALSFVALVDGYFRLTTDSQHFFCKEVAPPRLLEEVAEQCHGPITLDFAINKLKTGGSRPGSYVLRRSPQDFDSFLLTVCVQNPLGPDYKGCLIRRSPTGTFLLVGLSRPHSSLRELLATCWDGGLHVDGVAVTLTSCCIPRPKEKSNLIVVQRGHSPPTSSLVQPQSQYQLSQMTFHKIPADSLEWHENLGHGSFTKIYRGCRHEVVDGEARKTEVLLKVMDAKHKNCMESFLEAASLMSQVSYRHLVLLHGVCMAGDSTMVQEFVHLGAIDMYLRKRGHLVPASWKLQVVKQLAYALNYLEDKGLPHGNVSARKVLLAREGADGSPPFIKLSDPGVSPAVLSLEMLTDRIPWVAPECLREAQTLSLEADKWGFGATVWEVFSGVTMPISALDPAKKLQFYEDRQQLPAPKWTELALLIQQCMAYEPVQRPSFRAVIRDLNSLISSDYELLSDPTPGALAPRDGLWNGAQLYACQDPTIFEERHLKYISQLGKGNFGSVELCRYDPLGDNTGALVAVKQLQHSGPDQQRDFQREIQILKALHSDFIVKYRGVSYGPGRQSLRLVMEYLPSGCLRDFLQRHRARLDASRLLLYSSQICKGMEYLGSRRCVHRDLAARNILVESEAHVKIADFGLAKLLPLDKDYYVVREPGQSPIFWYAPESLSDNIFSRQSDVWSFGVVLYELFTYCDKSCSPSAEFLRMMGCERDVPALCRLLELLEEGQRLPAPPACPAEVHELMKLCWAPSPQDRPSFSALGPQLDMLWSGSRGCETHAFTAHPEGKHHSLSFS

In the case of `CCc1cc(O)c(F)cc1-c1ccc2c(-c3nc4c([nH]3)CN(CC)[C@H](C(=O)N3CC(C)(N(C)C)C3)C4)n[nH]c2c1` [Compound C-3, (S)-(3-(dimethylamino)-3-methylazetidin-1-yl)(5-ethyl-2-(6-(2-ethyl-5-fluoro-4-hydroxyphenyl)-1H-indazol-3-yl)-4,5,6,7-tetrahydro-3H-imidazo[4,5-c]pyridin-6-yl)methanone], the “Compound Remaining at 60 min (%)” value (Lung S9 metabolism) is reported as 5%, the “Sulfate Appearance” value (Lung S9 metabolism) is reported as “Yes” and the microsomal CLint at 1 µM (Lung S9 metabolism) is reported as 50.6 µL/min/mg. The “Tyk2 pKi” value (Tyk2) was 9.4, the IC50 [1] was 2 nM and the “JAK2 pKi” value (JAK2) was 10.9.

In the case of `CCCN1Cc2[nH]c(-c3n[nH]c4cc(-c5ccc(O)cc5CC)ccc34)nc2C[C@H]1C(=O)N1CC(N(C)C)C1` [Compound 5, (S)-(3-(dimethylamino)azetidin-1-yl)(2-(6-(2-ethyl-4-hydroxyphenyl)-1H-indazol-3-yl)-5-propyl-4,5,6,7-tetrahydro-3H-imidazo[4,5-c]pyridin-6-yl)methanone], the “Compound Remaining at 60 min (%)” value (Lung S9 metabolism) is reported as 96%, the “Sulfate Appearance” value (Lung S9 metabolism) is reported as “Yes” and the microsomal CLint at 1 µM (Lung S9 metabolism) is reported as 1.6 µL/min/mg. For the same molecule, the Ki (JAK1) was 0.0316 nM.

In the case of `CCCN1Cc2[nH]c(-c3n[nH]c4cc(-c5cc(F)c(O)cc5CC)ccc34)nc2C[C@H]1C(=O)N1CC(C)(N(C)C)C1` [Compound C-6, (S)-(3-(dimethylamino)-3-methylazetidin-1-yl)(2-(6-(2-ethyl-5-fluoro-4-hydroxyphenyl)-1H-indazol-3-yl)-5-propyl-4,5,6,7-tetrahydro-3H-imidazo[4,5-c]pyridin-6-yl)methanone], the “Compound Remaining at 60 min (%)” value (Lung S9 metabolism) is reported as 4%, the “Sulfate Appearance” value (Lung S9 metabolism) is reported as “Yes” and the microsomal CLint at 1 µM (Lung S9 metabolism) is reported as 53.5 µL/min/mg. The IC50 [1] was 2.51 nM and the “JAK2 pKi” value (JAK2) was 10.7.

In the case of `CCc1cc(O)c(F)cc1-c1ccc2c(-c3nc4c([nH]3)CN(CC)[C@H](C(=O)N3CC(N(C)C)C3)C4)n[nH]c2c1` [Compound C-2, (S)-(3-(dimethylamino)azetidin-1-yl)(5-ethyl-2-(6-(2-ethyl-5-fluoro-4-hydroxyphenyl)-1H-indazol-3-yl)-4,5,6,7-tetrahydro-3H-imidazo[4,5-c]pyridin-6-yl)methanone], the “Compound Remaining at 60 min (%)” value (Lung S9 metabolism) is reported as 6%, the “Sulfate Appearance” value (Lung S9 metabolism) is reported as “Yes” and the microsomal CLint at 1 µM (Lung S9 metabolism) is reported as 46.7 µL/min/mg. For the same molecule, the “Tyk2 pKi” value (Tyk2) was 9.4, the IC50 [1] was 2 nM and the “JAK2 pKi” value (JAK2) was 10.9. For the same molecule, the “JAK3 pKi” value (JAK3) was 9.5.

In the case of `CCc1cc(O)c(F)cc1-c1ccc2c(-c3nc4c([nH]3)CN(C(C)C)[C@H](C(=O)N3CC(C)(N(C)C)C3)C4)n[nH]c2c1` [Compound C-4, (S)-(3-(dimethylamino)-3-methylazetidin-1-yl)(2-(6-(2-ethyl-5-fluoro-4-hydroxyphenyl)-1H-indazol-3-yl)-5-isopropyl-4,5,6,7-tetrahydro-3H-imidazo[4,5-c]pyridin-6-yl)methanone], the “Compound Remaining at 60 min (%)” value (Lung S9 metabolism) is reported as 4%, the “Sulfate Appearance” value (Lung S9 metabolism) is reported as “Yes” and the microsomal CLint at 1 µM (Lung S9 metabolism) is reported as 53.2 µL/min/mg. The Ki (JAK1) was 0.0794 nM, the IC50 [1] was 2.51 nM and the Ki (JAK2; read-out: JAK2 pKi (converted)) was 0.0126 nM.

With `CCCN1Cc2[nH]c(-c3n[nH]c4cc(-c5cc(F)c(O)cc5CC)ccc34)nc2C[C@H]1C(=O)N1CC(N(C)C)C1` [Compound C-5, (S)-(3-(dimethylamino)azetidin-1-yl)(2-(6-(2-ethyl-5-fluoro-4-hydroxyphenyl)-1H-indazol-3-yl)-5-propyl-4,5,6,7-tetrahydro-3H-imidazo[4,5-c]pyridin-6-yl)methanone] the “Compound Remaining at 60 min (%)” value (Lung S9 metabolism) was 5%, the “Sulfate Appearance” value (Lung S9 metabolism) was “Yes” and the microsomal CLint at 1 µM (Lung S9 metabolism) was 50.5 µL/min/mg. For the same molecule, the “Tyk2 pKi” value (Tyk2) was 9.4, the “JAK1 pKi” value (JAK1) was 10.1 and the IC50 [1] was 2 nM. For the same molecule, the “JAK2 pKi” value (JAK2) was 10.8 and the “JAK3 pKi” value (JAK3) was 10.0.
